Tests used:
Assay type in all cases: in vivo, human
[1] = test system: patients with type 2 diabetes mellitus; assay: Phase 2a trial, HbA1c (glycemic control); details: for Visit 1 HbA1c mean: Visit 1 (Day 1, before first dose, baseline); for HbA1c Change vs Baseline mean / Visit 3 HbA1c mean: 14 daily doses; for Visit 3 HbA1c mean: Visit 3 (Day 15)
Protocol: (§1) Five (5) dose groups were studied.
(§2) The first dose of the study drug was given on Day 1 at 2200 h. Activity markers measured on Day 1 prior to administration of the drug (“Visit 1”). The last dose of study drug was given on Day 14 at 2200 h and activity markers measured on Day 15 (“Visit 3”). Measurements of safety markers were taken on Visits 1 and 3, as well as Visit 2 (Day 8) and Visit 4 (Day 28).
This test measure levels of glycated hemoglobin and reflects the average blood glucose level for a subject over the preceding 3 months (approximately). Elevated levels are common in diabetics. Lowering the hemoglobin A1c number can delay or prevent the development of serious eye, kidney, and nerve disease in individuals with diabetes.

[2] = test system: patients with type 2 diabetes mellitus; assay: Phase 2a trial, fructosamine (glycemic control); details: for Fructosamine Visit 1 mean: Visit 1 (baseline, before first dose); for Fructosamine Change vs Baseline mean / Fructosamine Visit 3 mean: 14 daily doses; for Fructosamine Visit 3 mean: Visit 3 (Day 15)
Protocol: as §1, §2
Fructosamine levels were measured at baseline and after two weeks of therapy (see Table 4 and FIGS. 1 and 2). […] Fructosamine levels reflect blood glucose levels over the preceding 2-3 weeks.

[3] = test system: patients with type 2 diabetes mellitus; assay: Phase 2a trial, total cholesterol; details: for Total cholesterol Visit 1 mean: Visit 1 (baseline, before first dose); for Total cholesterol Change mean / Total cholesterol Mean % change / Total cholesterol Visit 3 mean: 14 daily doses; for Total cholesterol Visit 3 mean: Visit 3 (Day 15)
Protocol: as §1, §2

[4] = test system: patients with type 2 diabetes mellitus; assay: Phase 2a trial, LDL cholesterol; details: for LDL cholesterol Visit 1 mean: Visit 1 (baseline, before first dose); for LDL cholesterol Mean % change / LDL cholesterol change mean / LDL cholesterol Visit 3 mean: 14 daily doses; for LDL cholesterol Visit 3 mean: Visit 3 (Day 15)
Protocol: as §1, §2

[5] = test system: patients with type 2 diabetes mellitus; assay: Phase 2a trial, continuous blood pressure monitoring; details: Visits 1 and 3, 14 daily doses
Protocol: as §1
Continuous blood pressure monitoring was performed during Visits 1 and 3.

[6] = test system: patients with type 2 diabetes mellitus; assay: Phase 2a trial, C-reactive protein (marker of inflammation)
Protocol: as §1, §2

2S,4R ketoconazole [DIO-902]
Visit 1 HbA1c mean ([1]; 200 mg po QD group): 8.18% | HbA1c Change vs Baseline mean ([1]; 200 mg po QD): −0.32% | Visit 3 HbA1c mean ([1]; 200 mg po QD): 7.86% | Visit 1 HbA1c mean ([1]; 400 mg po QD group): 7.88% | HbA1c Change vs Baseline mean ([1]; 400 mg po QD): −0.18% | Visit 3 HbA1c mean ([1]; 400 mg po QD): 7.70% | Visit 1 HbA1c mean ([1]; 600 mg po QD group): 9.10% | HbA1c Change vs Baseline mean ([1]; 600 mg po QD): −0.47% | Visit 3 HbA1c mean ([1]; 600 mg po QD): 8.63% | effect on HbA1c ([1]; administration for 14 days): trends toward a reduction | Fructosamine Visit 1 mean ([2]; 200 mg po QD group): 262 µmol/L | Fructosamine Change vs Baseline mean ([2]; 200 mg po QD): -12.20 µmol/L | Fructosamine Visit 3 mean ([2]; 200 mg po QD): 249.80 µmol/L | Fructosamine Visit 1 mean ([2]; 400 mg po QD group): 271.00 µmol/L | Fructosamine Change vs Baseline mean ([2]; 400 mg po QD): -8.33 µmol/L | Fructosamine Visit 3 mean ([2]; 400 mg po QD): 262.67 µmol/L | Fructosamine Visit 1 mean ([2]; 600 mg po QD group): 276.33 µmol/L | Fructosamine Change vs Baseline mean ([2]; 600 mg po QD): -29.33 µmol/L | Fructosamine Visit 3 mean ([2]; 600 mg po QD): 247.00 µmol/L | effect on fructosamine ([2]; administration for 14 days): trends toward a reduction | Total cholesterol Visit 1 mean ([3]; 200 mg po QD group): 227.20 mg/dL | Total cholesterol Change mean ([3]; 200 mg po QD): -26.10 mg/dL | Total cholesterol Mean % change ([3]; 200 mg po QD): −11.66% | Total cholesterol Visit 3 mean ([3]; 200 mg po QD): 202.45 mg/dL | Total cholesterol Visit 1 mean ([3]; 400 mg po QD group): 224.50 mg/dL | Total cholesterol Change mean ([3]; 400 mg po QD): -34.00 mg/dL | Total cholesterol Mean % change ([3]; 400 mg po QD): −15.35% | Total cholesterol Visit 3 mean ([3]; 400 mg po QD): 190.50 mg/dL | Total cholesterol Visit 1 mean ([3]; 600 mg po QD group): 195.33 mg/dL | Total cholesterol Change mean ([3]; 600 mg po QD): -48.75 mg/dL | Total cholesterol Mean % change ([3]; 600 mg po QD): −29.97% | Total cholesterol Visit 3 mean ([3]; 600 mg po QD): 130.33 mg/dL | effect on total cholesterol ([3]; two-week administration): Statistically significant, dose dependent decreases | LDL cholesterol Visit 1 mean ([4]; 200 mg po QD group): 141.60 mg/dL | LDL cholesterol Mean % change ([4]; 200 mg po QD): −11.39% | LDL cholesterol change mean ([4]; 200 mg po QD): -17.20 mg/dL | LDL cholesterol Visit 3 mean ([4]; 200 mg po QD): 124.40 mg/dL | LDL cholesterol Visit 1 mean ([4]; 400 mg po QD group): 133.33 mg/dL | LDL cholesterol Mean % change ([4]; 400 mg po QD): −27.44% | LDL cholesterol change mean ([4]; 400 mg po QD): -35.50 mg/dL | LDL cholesterol Visit 3 mean ([4]; 400 mg po QD): 97.83 mg/dL | LDL cholesterol Visit 1 mean ([4]; 600 mg po QD group): 125.67 mg/dL | LDL cholesterol Mean % change ([4]; 600 mg po QD): −42.14% | LDL cholesterol change mean ([4]; 600 mg po QD): -41.25 mg/dL | LDL cholesterol Visit 3 mean ([4]; 600 mg po QD): 70.67 mg/dL | effect on LDL-C ([4]; two-week administration): Statistically significant, dose dependent decreases | effect on blood pressure readings [5]: no reductions | C-Reactive Protein (CRP) Visit 1 mean ([6]; 200 mg po QD group, Visit 1 (baseline, before first dose)): 6.91 mg/L | CRP Mean % change vs baseline ([6]; 200 mg po QD, 14 daily doses): −19.8%

Reference: patent publication US9198906B2, “Ketoconazole enantiomer in humans” (Cortendo AB (publ), priority 2006, dated 2015)
